These are literature values, as cited in patent US7217681B2, “Pesticidal composition and method for fungal control” (Syngenta Crop Protection, Inc., priority 2004, dated 2007).

The data set concerns fungi. The following applies: reported by Burg et al., Ivermectin and Abamectin, 1989.

As for abamectin, the “anti-bacterial or antifungal activity” value was “no anti-bacterial or antifungal activity”.
